Reference: patent US12559492B2, “BRAF degraders” (C4 Therapeutics, Inc., priority 2020, dated 2026)

Biological target: BRAF^V600E protein (Homo sapiens, UniProt P15056, V600E)
Assay: HiBiT cellular BRAF V600E degradation assay
Type: cell-based
Conditions: 24 h incubation; for DC50: A375.10 cells (HiBiT tag knocked in at N-terminal of BRAF V600E), concentration at which 50% of total cellular BRAF V600E is degraded; for Emax: A375.10 cells, Emax = amount of residual protein remaining in the cell after compound treatment, read-out: HiBit 24 h Emax

BRAF^V600E protein, sequence (P15056 whole entry V600E): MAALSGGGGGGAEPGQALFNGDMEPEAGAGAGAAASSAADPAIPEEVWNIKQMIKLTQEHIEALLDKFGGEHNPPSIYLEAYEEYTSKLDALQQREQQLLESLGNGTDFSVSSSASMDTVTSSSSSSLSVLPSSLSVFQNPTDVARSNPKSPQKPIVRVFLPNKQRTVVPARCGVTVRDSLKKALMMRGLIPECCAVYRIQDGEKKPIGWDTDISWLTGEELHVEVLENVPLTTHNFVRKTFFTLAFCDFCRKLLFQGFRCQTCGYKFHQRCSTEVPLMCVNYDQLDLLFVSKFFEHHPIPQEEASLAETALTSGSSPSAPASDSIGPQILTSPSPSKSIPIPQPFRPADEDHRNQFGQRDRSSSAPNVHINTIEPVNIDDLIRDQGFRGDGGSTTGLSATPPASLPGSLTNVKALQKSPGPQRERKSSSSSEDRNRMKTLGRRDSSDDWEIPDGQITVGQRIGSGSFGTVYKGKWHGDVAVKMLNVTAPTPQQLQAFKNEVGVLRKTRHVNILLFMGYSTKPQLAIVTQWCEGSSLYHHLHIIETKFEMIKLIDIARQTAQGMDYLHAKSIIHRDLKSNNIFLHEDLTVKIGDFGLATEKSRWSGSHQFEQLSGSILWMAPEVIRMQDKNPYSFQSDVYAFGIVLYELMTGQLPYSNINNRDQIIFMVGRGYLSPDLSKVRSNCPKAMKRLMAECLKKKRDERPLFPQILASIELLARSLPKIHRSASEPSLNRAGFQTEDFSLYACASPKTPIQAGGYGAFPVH

Row | Structure (SMILES) | DC50 [nM] | Emax [%]
1 | CCN(C)S(=O)(=O)Nc1ccc(F)c(C(=O)c2c[nH]c3ncc(-c4cnc(N5CCN(C(=O)CC6(O)CCN(c7ccc(NC8CCC(=O)NC8=O)cc7C(F)F)CC6)CC5)nc4)cc23)c1F (stereo not shown) [Example 204, 5-[2-[4-[2-[1-[2-(difluoromethyl)-4-[(2,6-dioxo-3-piperidyl)amino]phenyl]-4-hydroxy-4-piperidyl]acetyl]piperazin-1-yl]pyrimidin-5-yl]-3-[3-[[ethyl(methyl)sulfamoyl]amino]-2,6-difluoro-benzoyl]-1H-pyrrolo[2,3-b]pyridine] | 3.8 | 8.6
2 | CCN(C)S(=O)(=O)Nc1ccc(F)c(C(=O)c2c[nH]c3ncc(-c4cnc(N5CCN(C(=O)CC6(O)CCN(c7ccc(C8CCC(=O)NC8=O)cc7F)CC6)CC5)c(F)c4)cc23)c1F (stereo not shown) [Example 205, 5-[6-[4-[2-[1-[4-(2,6-dioxo-3-piperidyl)-2-fluoro-phenyl]-4-hydroxy-4-piperidyl]acetyl]piperazin-1-yl]-5-fluoro-3-pyridyl]-3-[3-[[ethyl(methyl)sulfamoyl]amino]-2,6-difluoro-benzoyl]-1H-pyrrolo[2,3-b]pyridine] | 2.34 | 6.63
3 | CCN(C)S(=O)(=O)Nc1ccc(F)c(C(=O)c2c[nH]c3ncc(-c4cnc(N5CCN(C(=O)CC6(O)CCN(c7ccc(N[C@H]8CCC(=O)NC8=O)cc7Cl)CC6)CC5)nc4)cc23)c1F [Example 206, 5-[2-[4-[2-[1-[2-chloro-4-[[(3S)-2,6-dioxo-3-piperidyl]amino]phenyl]-4-hydroxy-4-piperidyl]acetyl]piperazin-1-yl]pyrimidin-5-yl]-3-[3-[[ethyl(methyl)sulfamoyl]amino]-2,6-difluoro-benzoyl]-1H-pyrrolo[2,3-b]pyridine] | 2.28 | 6.9
4 | CCN(C)S(=O)(=O)Nc1cc(F)cc(C(=O)c2c[nH]c3ncc(-c4ccc(N5CCN(C(=O)CC6(O)CCN(c7ccc(NC8CCC(=O)NC8=O)cc7F)CC6)CC5)nc4)cc23)c1F (stereo not shown) [Example 207, 5-[6-[4-[2-[1-[4-[(2,6-dioxo-3-piperidyl)amino]-2-fluoro-phenyl]-4-hydroxy-4-piperidyl]acetyl]piperazin-1-yl]-3-pyridyl]-3-[3-[[ethyl(methyl)sulfamoyl]amino]-2,5-difluoro-benzoyl]-1H-pyrrolo[2,3-b]pyridine] | 1.23 | 6.98
5 | CCN(C)S(=O)(=O)Nc1ccc(F)c(C(=O)c2c[nH]c3ncc(-c4ccc(N5CCN(C(=O)CC6(O)CCN(c7ccc(N[C@H]8CCC(=O)NC8=O)cc7Cl)CC6)CC5)nc4)cc23)c1F [Example 208, 5-[6-[4-[2-[1-[2-chloro-4-[[(3S)-2,6-dioxo-3-piperidyl]amino]phenyl]-4-hydroxy-4-piperidyl]acetyl]piperazin-1-yl]-3-pyridyl]-3-[3-[[ethyl(methyl)sulfamoyl]amino]-2,6-difluoro-benzoyl]-1H-pyrrolo[2,3-b]pyridine] | 1.73 | 7.34
6 | CCN(C)S(=O)(=O)Nc1ccc(F)c(C(=O)c2c[nH]c3ncc(-c4cnc(N5CCN(C(=O)CC6(O)CCN(c7ccc(N[C@@H]8CCC(=O)NC8=O)cc7Cl)CC6)CC5)nc4)cc23)c1F [Example 209, 5-[2-[4-[2-[1-[2-chloro-4-[[(3R)-2,6-dioxo-3-piperidyl]amino]phenyl]-4-hydroxy-4-piperidyl]acetyl]piperazin-1-yl]pyrimidin-5-yl]-3-[3-[[ethyl(methyl)sulfamoyl]amino]-2,6-difluoro-benzoyl]-1H-pyrrolo[2,3-b]pyridine] | 0.76 | 5.52
7 | CCN(C)S(=O)(=O)Nc1ccc(F)c(C(=O)c2c[nH]c3ncc(-c4ccc(N5CCN(C(=O)CC6(O)CCN(c7ccc(NC8CCC(=O)NC8=O)cc7F)CC6)CC5)cc4F)cc23)c1F (stereo not shown) [Example 210, 5-[4-[4-[2-[1-[4-[(2,6-dioxo-3-piperidyl)amino]-2-fluoro-phenyl]-4-hydroxy-4-piperidyl]acetyl]piperazin-1-yl]-2-fluoro-phenyl]-3-[3-[[ethyl(methyl)sulfamoyl]amino]-2,6-difluoro-benzoyl]-1H-pyrrolo[2,3-b]pyridine] | 7.69 | 7.6
8 | CCN(C)S(=O)(=O)Nc1ccc(F)c(C(=O)c2c[nH]c3ncc(-c4cnc(N5CCN(C(=O)CC6(O)CCN(c7ccc(NC8CCC(=O)NC8=O)cc7F)CC6)CC5)c(S(C)(=O)=O)c4)cc23)c1F (stereo not shown) [Example 211, 5-[6-[4-[2-[1-[4-[(2,6-dioxo-3-piperidyl)amino]-2-fluoro-phenyl]-4-hydroxy-4-piperidyl]acetyl]piperazin-1-yl]-5-methylsulfonyl-3-pyridyl]-3-[3-[[ethyl(methyl)sulfamoyl]amino]-2,6-difluoro-benzoyl]-1H-pyrrolo[2,3-b]pyridine] | 11.3 | 9.3
9 | CCN(C)S(=O)(=O)Nc1ccc(F)c(C(=O)c2c[nH]c3ncc(-c4ccc(N5CCN(C(=O)CC6(O)CCN(c7ccc(NC8CCC(=O)NC8=O)cc7F)CC6)CC5)c(C(F)(F)F)c4)cc23)c1F (stereo not shown) [Example 212, 5-[4-[4-[2-[1-[4-[(2,6-dioxo-3-piperidyl)amino]-2-fluoro-phenyl]-4-hydroxy-4-piperidyl]acetyl]piperazin-1-yl]-3-(trifluoromethyl)phenyl]-3-[3-[[ethyl(methyl)sulfamoyl]amino]-2,6-difluoro-benzoyl]-1H-pyrrolo[2,3-b]pyridine] | 32.8 | 7.02
10 | CCN(C)S(=O)(=O)Nc1ccc(F)c(C(=O)c2c[nH]c3ncc(-c4cnc(N5CCN(C(=O)CC6(O)CCN(c7ccc(N8CCC(=O)NC8=O)cc7Cl)CC6)CC5)nc4)cc23)c1F [Example 213, 5-[2-[4-[2-[1-[2-chloro-4-(2,4-dioxohexahydropyrimidin-1-yl)phenyl]-4-hydroxy-4-piperidyl]acetyl]piperazin-1-yl]pyrimidin-5-yl]-3-[3-[[ethyl(methyl)sulfamoyl]amino]-2,6-difluoro-benzoyl]-1H-pyrrolo[2,3-b]pyridine] | 0.42 | 6.06
11 | CCN(C)S(=O)(=O)Nc1ccc(F)c(C(=O)c2c[nH]c3ncc(-c4ccc(N5CCN(C(=O)CC6(O)CCN(c7ccc(N8CCC(=O)NC8=O)cc7Cl)CC6)CC5)nc4)cc23)c1F [Example 214, 5-[6-[4-[2-[1-[2-chloro-4-(2,4-dioxohexahydropyrimidin-1-yl)phenyl]-4-hydroxy-4-piperidyl]acetyl]piperazin-1-yl]-3-pyridyl]-3-[3-[[ethyl(methyl)sulfamoyl]amino]-2,6-difluoro-benzoyl]-1H-pyrrolo[2,3-b]pyridine] | 0.65 | 5.48
12 | CCN(C)S(=O)(=O)Nc1ccc(F)c(C(=O)c2c[nH]c3ncc(-c4ccc(N5CCN(C(=O)CC6(O)CCN(c7cc(F)c(N8CCC(=O)NC8=O)cc7Cl)CC6)CC5)nc4)cc23)c1F [Example 215, 5-[6-[4-[2-[1-[2-chloro-4-(2,4-dioxohexahydropyrimidin-1-yl)-5-fluoro-phenyl]-4-hydroxy-4-piperidyl]acetyl]piperazin-1-yl]-3-pyridyl]-3-[3-[[ethyl(methyl)sulfamoyl]amino]-2,6-difluoro-benzoyl]-1H-pyrrolo[2,3-b]pyridine] | 2.71 | 7.87
13 | CCN(C)S(=O)(=O)Nc1ccc(F)c(C(=O)c2c[nH]c3ncc(-c4cnc(N5CCN(C(=O)CC6(O)CCN(c7cc(F)c(N8CCC(=O)NC8=O)cc7Cl)CC6)CC5)nc4)cc23)c1F [Example 216, 5-[2-[4-[2-[1-[2-chloro-4-(2,4-dioxohexahydropyrimidin-1-yl)-5-fluoro-phenyl]-4-hydroxy-4-piperidyl]acetyl]piperazin-1-yl]pyrimidin-5-yl]-3-[3-[[ethyl(methyl)sulfamoyl]amino]-2,6-difluoro-benzoyl]-1H-pyrrolo[2,3-b]pyridine] | 1.33 | 7.4
14 | CN(C1CC1)S(=O)(=O)Nc1ccc(F)c(C(=O)c2c[nH]c3ncc(-c4ccc(N5CCN(C(=O)CC6(O)CCN(c7ccc(NC8CCC(=O)NC8=O)cc7F)CC6)CC5)nc4)cc23)c1F (stereo not shown) [Example 217, 3-[3-[[cyclopropyl(methyl)sulfamoyl]amino]-2,6-difluoro-benzoyl]-5-[6-[4-[2-[1-[4-[(2,6-dioxo-3-piperidyl)amino]-2-fluoro-phenyl]-4-hydroxy-4-piperidyl]acetyl]piperazin-1-yl]-3-pyridyl]-1H-pyrrolo[2,3-b]pyridine] | 62.2 | 21
15 | CCN(C)S(=O)(=O)Nc1ccc(F)c(C(=O)c2c[nH]c3ncc(-c4ccc(N5CCN(C(=O)CC6(O)CCN(c7cc(Cl)c(N8CCC(=O)NC8=O)cc7Cl)CC6)CC5)nc4)cc23)c1F [Example 218, 5-[6-[4-[2-[1-[2,5-dichloro-4-(2,4-dioxohexahydropyrimidin-1-yl)phenyl]-4-hydroxy-4-piperidyl]acetyl]piperazin-1-yl]-3-pyridyl]-3-[3-[[ethyl(methyl)sulfamoyl]amino]-2,6-difluoro-benzoyl]-1H-pyrrolo[2,3-b]pyridine] | 4.1 | 6.24
16 | CCN(C)S(=O)(=O)Nc1ccc(F)c(C(=O)c2c[nH]c3ncc(-c4ccc(N5CCN(C(=O)CC6(O)CCN(c7cc(Cl)c(N8CCC(=O)NC8=O)cc7F)CC6)CC5)nc4)cc23)c1F [Example 219, 5-[6-[4-[2-[1-[5-chloro-4-(2,4-dioxohexahydropyrimidin-1-yl)-2-fluoro-phenyl]-4-hydroxy-4-piperidyl]acetyl]piperazin-1-yl]-3-pyridyl]-3-[3-[[ethyl(methyl)sulfamoyl]amino]-2,6-difluoro-benzoyl]-1H-pyrrolo[2,3-b]pyridine] | 1.65 | 6.11
17 | CCN(C)S(=O)(=O)Nc1ccc(F)c(C(=O)c2c[nH]c3ncc(-c4ccc(N5CCN(C(=O)CC6(O)CCN(c7cc(F)c(N8CCC(=O)NC8=O)cc7F)CC6)CC5)nc4)cc23)c1F [Example 220, 5-[6-[4-[2-[1-[4-(2,4-dioxohexahydropyrimidin-1-yl)-2,5-difluoro-phenyl]-4-hydroxy-4-piperidyl]acetyl]piperazin-1-yl]-3-pyridyl]-3-[3-[[ethyl(methyl)sulfamoyl]amino]-2,6-difluoro-benzoyl]-1H-pyrrolo[2,3-b]pyridine] | 1.45 | 7.62
